test system: C4-2B; assay: Cell line inhibition analysis (CCK-8, 72 h); assay type: cell-based; details: read-out: Cell growth inhibition GI50 C4-2B
Method: C4-2B and 22Rv1 cells were purchased from ATCC and cultured according to the manufacturer's instructions. The cells were seeded in 96-well plates at 7×10^3cells/100 µl/well and allowed to attach for one day. After removing the culture medium, 90 µl/well of fresh culture medium was added, followed by addition of 10 µl/well of culture medium containing compounds at nine concentrations (0.076-500 µM) serially diluted 3-fold and DMSO control to achieve final concentrations of 0-50 µM, and then cultured for 72 hours in a 37 °C CO2 incubator. Cell proliferation after 72 hours was assessed by adding 10 µl/well of CCK-8 solution, orbital shaking for 30 seconds, then incubating at 37 °C CO2 incubator for 2 hours and measuring absorbance at 450 nm using a microplate reader. The measured absorbance values were corrected by subtracting the absorbance of wells containing only culture medium and CCK-8 solution, and GI50 values were calculated using GraphPad Prism 8 software.
Meanwhile, in a separate 96-well plate, cells were seeded at 7 × 10^3 cells/100 µl/well, allowed to attach for one day, CCK-8 solution was added, and absorbance was measured to establish the 'Growth (%) = 0' value.

Row | Structure (SMILES) | GI50
1 | Cc1ccc(NC(=O)c2ccc(F)c(F)c2)cc1N1Cc2cnc(N)nc2C2(CC2)C1=O [Compound 9, N-(3-(2'-amino-7'-oxo-5'H-spiro[cyclopropane-1,8'-pyrido[4,3-d]pyrimidine]-6'(7'H)-yl)-4-methylphenyl)-3,4-difluorobenzamide] | > 10 µM
2 | Cc1ccc(NC(=O)c2ccc(F)c(F)c2)cc1N1Cc2cnc(NC3CC3)nc2C2(CC2)C1=O [Compound 10, N-(3-(2'-(cyclopropylamino)-7'-oxo-5'H-spiro[cyclopropane-1,8'-pyrido[4,3-d]pyrimidine]-6'(7'H)-yl)-4-methylphenyl)-3,4-difluorobenzamide] | > 10 µM
3 | Cc1ccc(NC(=O)c2cc(F)cc(F)c2)cc1N1Cc2cnc(NC3CC3)nc2C2(CC2)C1=O [Compound 11, N-(3-(2'-(cyclopropylamino)-7'-oxo-5'H-spiro[cyclopropane-1,8'-pyrido[4,3-d]pyrimidine]-6'(7'H)-yl)-4-methylphenyl)-3,5-difluorobenzamide] | > 10 µM
4 | Cc1ccc(NC(=O)c2ccc(C)c(C(F)(F)F)c2)cc1N1Cc2cnc(NC3CC3)nc2C2(CC2)C1=O [Compound 12, N-(3-(2'-(cyclopropylamino)-7'-oxo-5'H-spiro[cyclopropane-1,8'-pyrido[4,3-d]pyrimidine]-6'(7'H)-yl)-4-methylphenyl)-4-methyl-3-(trifluoromethyl)benzamide] | 1 to 5 µM
5 | Cc1ccc(NC(=O)c2cc(Br)cc(C(F)(F)F)c2)cc1N1Cc2cnc(NC3CC3)nc2C2(CC2)C1=O [Compound 13, 3-bromo-N-(3-(2'-(cyclopropylamino)-7'-oxo-5'H-spiro[cyclopropane-1,8'-pyrido[4,3-d]pyrimidine]-6'(7'H)-yl)-4-methylphenyl)-5-(trifluoromethyl)benzamide] | > 10 µM
6 | Cc1ccc(NC(=O)c2ccc(F)cc2F)cc1N1Cc2cnc(N)nc2C2(CC2)C1=O [Compound 14, N-(3-(2'-amino-7'-oxo-5'H-spiro[cyclopropane-1,8'-pyrido[4,3-d]pyrimidine]-6'(7'H)-yl)-4-methylphenyl)-2,4-difluorobenzamide] | > 10 µM
7 | Cc1ccc(NC(=O)c2cc(F)cc(F)c2)cc1N1Cc2cnc(N)nc2C2(CC2)C1=O [Compound 15, N-(3-(2'-amino-7'-oxo-5'H-spiro[cyclopropane-1,8'-pyrido[4,3-d]pyrimidine]-6'(7'H)-yl)-4-methylphenyl)-3,5-difluorobenzamide] | 5 to 10 µM
8 | COc1cccc(C(=O)Nc2ccc(C)c(N3Cc4cnc(N)nc4C4(CC4)C3=O)c2)c1 [Compound 16, N-(3-(2'-amino-7'-oxo-5'H-spiro[cyclopropane-1,8'-pyrido[4,3-d]pyrimidine]-6'(7'H)-yl)-4-methylphenyl)-3-methoxybenzamide] | > 10 µM
9 | Cc1ccc(NC(=O)c2cc(C(F)(F)F)cc(Cl)c2F)cc1N1Cc2cnc(N)nc2C2(CC2)C1=O [Compound 17, N-(3-(2'-amino-7'-oxo-5'H-spiro[cyclopropane-1,8'-pyrido[4,3-d]pyrimidine]-6'(7'H)-yl)-4-methylphenyl)-3-chloro-2-fluoro-5-(trifluoromethyl)benzamide] | > 10 µM
10 | Cc1ccc(NC(=O)c2cc(C(F)(F)F)ccc2F)cc1N1Cc2cnc(N)nc2C2(CC2)C1=O [Compound 18, N-(3-(2'-amino-7'-oxo-5'H-spiro[cyclopropane-1,8'-pyrido[4,3-d]pyrimidine]-6'(7'H)-yl)-4-methylphenyl)-2-fluoro-5-(trifluoromethyl)benzamide] | > 10 µM
11 | Cc1ccc(NC(=O)c2cccc(C(F)(F)F)n2)cc1N1Cc2cnc(N)nc2C2(CC2)C1=O [Compound 21, N-(3-(2'-amino-7'-oxo-5'H-spiro[cyclopropane-1,8'-pyrido[4,3-d]pyrimidine]-6'(7'H)-yl)-4-methylphenyl)-6-(trifluoromethyl)picolinamide] | > 10 µM
12 | Cc1ccc(NC(=O)c2ccnc(C(F)(F)F)c2)cc1N1Cc2cnc(N)nc2C2(CC2)C1=O [Compound 22, N-(3-(2'-amino-7'-oxo-5'H-spiro[cyclopropane-1,8'-pyrido[4,3-d]pyrimidine]-6'(7'H)-yl)-4-methylphenyl)-2-(trifluoromethyl)isonicotinamide] | > 10 µM
13 | Cc1ccc(NC(=O)c2cc(O)cc(C(F)(F)F)c2)cc1N1Cc2cnc(N)nc2C2(CC2)C1=O [Compound 23, N-(3-(2'-amino-7'-oxo-5'H-spiro[cyclopropane-1,8'-pyrido[4,3-d]pyrimidine]-6'(7'H)-yl)-4-methylphenyl)-3-hydroxy-5-(trifluoromethyl)benzamide] | 5 to 10 µM
14 | Cc1ccc(NC(=O)c2cc(F)cc(C(F)(F)F)c2)cc1N1Cc2cnc(NC3CC3)nc2C2(CC2)C1=O [Compound 27, N-(3-(2'-(cyclopropylamino)-7'-oxo-5'H-spiro[cyclopropane-1,8'-pyrido[4,3-d]pyrimidine]-6'(7'H)-yl)-4-methylphenyl)-3-fluoro-5-(trifluoromethyl)benzamide] | 5 to 10 µM
15 | COCCN(C)c1cc(C(=O)Nc2ccc(C)c(N3Cc4cnc(NC5CC5)nc4C4(CC4)C3=O)c2)cc(C(F)(F)F)c1 [Compound 30, N-(3-(2'-(cyclopropylamino)-7'-oxo-5'H-spiro[cyclopropane-1,8'-pyrido[4,3-d]pyrimidine]-6'(7'H)-yl)-4-methylphenyl)-3-((2-methoxyethyl)(methyl)amino)-5-(trifluoromethyl)benzamide] | 1 to 5 µM
16 | Cc1ccc(NC(=O)c2cc(N3CCN(C)CC3)cc(C(F)(F)F)c2)cc1N1Cc2cnc(NC3CC3)nc2C2(CC2)C1=O [Compound 32, N-(3-(2'-(cyclopropylamino)-7'-oxo-5'H-spiro[cyclopropane-1,8'-pyrido[4,3-d]pyrimidine]-6'(7'H)-yl)-4-methylphenyl)-3-(4-methylpiperazin-1-yl)-5-(trifluoromethyl)benzamide] | 1 to 5 µM
17 | Cc1ccc(NC(=O)c2cc(N3CCN(C)CC3)cc(C(F)(F)F)c2)cc1N1Cc2cnc(N)nc2C2(CC2)C1=O [Compound 33, N-(3-(2'-amino-7'-oxo-5'H-spiro[cyclopropane-1,8'-pyrido[4,3-d]pyrimidine]-6'(7'H)-yl)-4-methylphenyl)-3-(4-methylpiperazin-1-yl)-5-(trifluoromethyl)benzamide] | 5 to 10 µM
18 | Cc1ccc(NC(=O)c2cc(N3CCNCC3)cc(C(F)(F)F)c2)cc1N1Cc2cnc(N)nc2C2(CC2)C1=O [Compound 34, N-(3-(2'-amino-7'-oxo-5'H-spiro[cyclopropane-1,8'-pyrido[4,3-d]pyrimidine]-6'(7'H)-yl)-4-methylphenyl)-3-(piperazin-1-yl)-5-(trifluoromethyl)benzamide] | 5 to 10 µM
19 | Cc1ccc(NC(=O)c2cc(N3CCNCC3)cc(C(F)(F)F)c2)cc1N1Cc2cnc(NC3CC3)nc2C2(CC2)C1=O [Compound 35, N-(3-(2'-(cyclopropylamino)-7'-oxo-5'H-spiro[cyclopropane-1,8'-pyrido[4,3-d]pyrimidine]-6'(7'H)-yl)-4-methylphenyl)-3-(piperazin-1-yl)-5-(trifluoromethyl)benzamide] | 5 to 10 µM
20 | Cc1ccc(NC(=O)c2cc(N(C)CCN(C)C)cc(C(F)(F)F)c2)cc1N1Cc2cnc(NC3CC3)nc2C2(CC2)C1=O [Compound 36, N-(3-(2'-(cyclopropylamino)-7'-oxo-5'H-spiro[cyclopropane-1,8'-pyrido[4,3-d]pyrimidine]-6'(7'H)-yl)-4-methylphenyl)-3-((2-(dimethylamino)ethyl)(methyl)amino)-5-(trifluoromethyl)benzamide] | 5 to 10 µM

Reference: patent EP4722212A1, “NOVEL COMPOUND FOR INHIBITING PROTEIN KINASES AND PHARMACEUTICAL COMPOSITION COMPRISING SAME” (Magicbullettherapeutics Co., Ltd., priority 2023, dated 2024)
